Results: patent US11912670B1, “Ethyl 4-(5-(3-fluorophenyl)-4-phenyl-4H-1,2,4-triazol-3-ylthio)butanoate as an antimicrobial compound” (KING FAISAL UNIVERSITY, priority 2023, dated 2024)

How the values were obtained:
Type in all cases: cell-based
[1] = test system: Bacillus cereus; assay: Agar plate disc-diffusion, antibacterial (gram positive); details: nutrient agar, 37° C., 48 hours, DMSO control zone subtracted
Experimental: (§1) The agar plate disc-diffusion method was applied. […] The discs were then placed onto the surface of agar plates (nutrient agar for bacteria and Sabouraud's dextrose agar for fungi) seeded with the test organism. Each plate contained 15 mL of the agar medium, previously seeded with 0.2 mL of the broth culture of each organism pregrown for 18 hours. The plates were incubated at 37° C. for 48 hours, and 72 hours for fungi. The inhibition zones were measured in mm. Discs impregnated with DMSO were used as a control, and its inhibition zone was subtracted from the tested compound actual inhibition zone.

[2] = test system: Staphylococcus aureus; assay: as above; details: nutrient agar, 37° C., 48 hours, DMSO control zone subtracted
Experimental: as §1

[3] = test system: Escherichia coli; assay: Agar plate disc-diffusion, antibacterial (gram negative); details: nutrient agar, 37° C., 48 hours, DMSO control zone subtracted
Experimental: as §1

[4] = test system: Pseudomonas aeruginosa; assay: as above; details: nutrient agar, 37° C., 48 hours, DMSO control zone subtracted
Experimental: as §1

[5] = test system: Aspergillus flavus; assay: Agar plate disc-diffusion, antifungal; details: Sabouraud's dextrose agar, 72 hours, DMSO control zone subtracted
Experimental: as §1

[6] = test system: Chrysosporium keratinophilum; assay: Agar plate disc-diffusion, antifungal; details: Sabouraud's dextrose agar, 72 hours, DMSO control zone subtracted
Experimental: as §1

[7] = A = concentration of comp. = 10,000 μL
[8] = B = concentration of comp. = 30,000 μL
[9] = C = concentration of comp. = 50,000 μL

## CCOC(=O)CCCSc1nnc(-c2cccc(F)c2)n1-c1ccccc1 [III, ethyl 4-(5-(3-fluorophenyl)-4-phenyl-4H-1,2,4-triazol-3-ylthio)butanoate]
[1]; [7]
  inhibition zone, Bacillus Cereus, A: 27 mm
[1]; [8]
  inhibition zone, Bacillus Cereus, B: 29 mm
[1]; [9]
  inhibition zone, Bacillus Cereus, C: 40 mm
[2]; [7]
  inhibition zone, Staphylococcus aureus, A: 18 mm
[2]; [8]
  inhibition zone, Staphylococcus aureus, B: 25 mm
[2]; [9]
  inhibition zone, Staphylococcus aureus, C: 30 mm
[3]; [7]
  inhibition zone, Escherichia coli, A: 22 mm
[3]; [8]
  inhibition zone, Escherichia coli, B: 29 mm
[3]; [9]
  inhibition zone, Escherichia coli, C: 42 mm
[4]; [7]
  inhibition zone, Pseudomonas aeruginosa, A: 25 mm
[4]; [8]
  inhibition zone, Pseudomonas aeruginosa, B: 29 mm
[4]; [9]
  inhibition zone, Pseudomonas aeruginosa, C: 46 mm
[5]; [7]
  inhibition zone, Aspergillus flavus, A: 26 mm
[5]; [8]
  inhibition zone, Aspergillus flavus, B: 28 mm
[5]; [9]
  inhibition zone, Aspergillus flavus, C: 40 mm
[6]; A = concentration of comp. = 10,000 μg/mL
  inhibition zone, Chrysosporium keratinophilum, A: 25 mm
[6]; [8]
  inhibition zone, Chrysosporium keratinophilum, B: 28 mm
[6]; [9]
  inhibition zone, Chrysosporium keratinophilum, C: 48 mm
